The term EC50 denotes the concentration that produces a half-maximal response. High values mean lower potency in that assay, low ones higher potency in that assay.

Results on 21 compounds are retold here after patent US9260408B2, “Dihydroquinoline-2-one derivatives” (Hoffmann-La Roche Inc., priority 2011, dated 2016).

In assay [1] the target is T1, human CYP11B2 (Homo sapiens, UniProt P19099).
T1 construct: expressed in transfected cells
T1 sequence (P19099 25-503): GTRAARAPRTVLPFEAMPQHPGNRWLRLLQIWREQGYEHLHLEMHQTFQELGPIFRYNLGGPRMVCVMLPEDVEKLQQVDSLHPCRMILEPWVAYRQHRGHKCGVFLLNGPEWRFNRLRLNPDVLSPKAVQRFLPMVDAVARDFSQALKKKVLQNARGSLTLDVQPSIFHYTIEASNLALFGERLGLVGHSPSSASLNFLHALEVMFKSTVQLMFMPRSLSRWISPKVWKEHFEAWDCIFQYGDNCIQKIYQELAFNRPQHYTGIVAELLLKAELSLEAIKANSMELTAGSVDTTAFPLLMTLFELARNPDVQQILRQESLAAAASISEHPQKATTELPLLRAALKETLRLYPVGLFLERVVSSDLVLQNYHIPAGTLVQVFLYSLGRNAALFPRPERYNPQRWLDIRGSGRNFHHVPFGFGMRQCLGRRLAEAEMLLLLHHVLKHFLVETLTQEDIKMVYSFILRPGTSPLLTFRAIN
The experiment in a line: G-402 cellular enzyme assay, human CYP11B2 (aldosterone release, HTRF). Type of assay: cell-based. The settings on record: G-402 cells expressing human CYP11B2; 1 μM Deoxycorticosterone. An excerpt: (§1) Herein we identified the use of the G-402 cell line as a host cell to ectopically express (transiently or stably) enzymes of the CYP11 family. Specifically we developed stable G-402 cells expressing ectopically human CYP11B1, human CYP11B2, human CYP11A1, cynomolgus CYP11B1 or cynomolgus CYP11B2 enzyme activity. Importantly the identified cell line G-402 expresses co-factors (adrenodoxin and adrenodoxin reductase) important for the activity of the CYP11 family and no relevant enzyme activity of the CYP11 family (in comparison to H295R cells) was detected in these cells. Therefore the G-402 cell line is uniquely suited as a host cell for the ectopic expression of enzymes from the CYP11 family.
(§2) G-402 cells can be obtained from ATCC(CRL-1440) and were originally derived from a renal leiomyoblastoma.
(§3) The expression plasmids contains the ORF for either human/cyno CYP11B1 or CYP11B2 under the control of a suitable promoter (CMV-promoter) and a suitable resistance marker (neomycin). Using standard techniques the expression plasmid is transfected into G-402 cells and these cells are then selected for expressing the given resistance markers. Individual cell-clones are then selected and assessed for displaying the desired enzymatic activity using 11-Deoxycorticosterone (Cyp11B2) or 11-Deoxycortisol (Cyp11B1) as a substrate.
(§4) G-402 cells expressing CYP11 constructs were established as described above and maintained in McCoy's 5a Medium Modified, ATCC Catalog No. 30-2007 containing 10% FCS and 400 μg/ml G418 (Geneticin) at 37° C. under an atmosphere of 5% CO2/95% air. Cellular enzyme assays were performed in DMEM/F12 medium containing 2.5% charcoal treated FCS and appropriate concentration of substrate (0.3-10 uM 11-Deoxycorticosterone, 11-Deoxycortisol or Corticosterone). For assaying enzymatic activity, cells were plated onto 96 well plates and incubated for 16 h. An aliquot of the supernatant is then transferred and analyzed for the concentration of the expected product (Aldosterone for CYP11B2; Cortisol for CYP11B1). The concentrations of these steroids can be determined using HTRF assays from CisBio analyzing either Aldosterone or Cortisol.
(§5) Inhibition of the release of produced steroids can be used as a measure of the respective enzyme inhibition by test compounds added during the cellular enzyme assay. The dose dependent inhibition of enzymatic activity by a compound is calculated by means of plotting added inhibitor concentrations (x-axes) vs. measured steroid/product level (y-axes). The inhibition is then calculated by fitting the following 4-parameter sigmoidal function (Morgan-Mercer-Flodin (MMF) model) to the raw data points using the least squares method:
(§6) [formula] wherein, A is the maximum y value, B is the EC50 factor determined using XLFit, C is the minimum y value and D is the slope value.
(§7) EC50 values for compounds claimed herein were tested with the G402-based assay system described. Cyp11B2 enzyme activity was tested in presence of 1 μM Deoxycorticosterone and variable amounts of inhibitors; Cyp11B1 enzyme activity was tested in presence of 1 μM Deoxycortisol and variable amounts of inhibitors.

Assay [2] addresses T2, human CYP11B1 (Homo sapiens, UniProt P15538).
T2 construct: expressed in transfected cells
T2 sequence (P15538 25-503): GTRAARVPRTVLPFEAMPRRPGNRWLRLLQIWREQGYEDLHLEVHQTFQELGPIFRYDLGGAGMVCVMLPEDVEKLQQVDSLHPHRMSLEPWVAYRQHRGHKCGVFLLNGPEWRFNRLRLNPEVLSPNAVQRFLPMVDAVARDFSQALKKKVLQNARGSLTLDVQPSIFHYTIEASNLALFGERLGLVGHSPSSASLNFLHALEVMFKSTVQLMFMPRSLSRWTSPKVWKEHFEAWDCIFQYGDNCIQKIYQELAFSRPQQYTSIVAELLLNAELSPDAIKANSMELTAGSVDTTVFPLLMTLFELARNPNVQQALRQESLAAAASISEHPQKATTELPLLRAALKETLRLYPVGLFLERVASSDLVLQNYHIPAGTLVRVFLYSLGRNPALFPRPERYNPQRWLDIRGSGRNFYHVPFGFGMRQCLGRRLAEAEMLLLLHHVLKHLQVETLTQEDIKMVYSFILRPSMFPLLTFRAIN
Put plainly: G-402 cellular enzyme assay, human CYP11B1 (cortisol release, HTRF). Type of assay: cell-based. The settings on record: G-402 cells expressing human CYP11B1; 1 μM Deoxycortisol.
Text: as §1, §2, §3, §4, §5, §6, §7
In general terms: Time-resolved FRET reads energy transfer from a long-lived donor to a nearby acceptor.

Structures are written as SMILES.

Take `CC(NC(=O)c1ncccc1Cl)c1cncc(-c2ccc3c(c2)CCC(=O)N3C)c1Cl` (single isomer, unassigned) [Example 251, 3-Chloro-pyridine-2-carboxylic acid {(R or S)-1-[4-chloro-5-(1-methyl-2-oxo-1,2,3,4-tetrahydro-quinolin-6-yl)-pyridin-3-yl]-ethyl}-amide]: the EC50 in assay [1] was determined as 1 nM; in assay [2] it was 6 nM.
On to `Cc1noc(C)c1C(=O)NCCOc1cncc(-c2ccc3c(c2)CCC(=O)N3C)c1` [Example 102], for which the results for the EC50 in assay [1] and in assay [2] were 14 nM and 1440 nM, respectively.
Consider `Cc1c(CNC(=O)c2ncccc2Cl)cncc1-c1ccc2c(c1)CCC(=O)N2C` [Example 224, 3-Chloro-pyridine-2-carboxylic acid [4-methyl-5-(1-methyl-2-oxo-1,2,3,4-tetrahydro-quinolin-6-yl)-pyridin-3-ylmethyl]-amide], for which the EC50 in assay [1] turned out to be 6 nM; in assay [2] it was 173 nM.
`COc1nc(Cl)cnc1C(=O)NCc1cncc(-c2ccc3c(c2)CCC(=O)N3C)c1` [Example 134]: the EC50 came out at 3 nM in assay [1] and 94 nM in assay [2].
Regarding `CN1C(=O)CCc2cc(-c3cncc(CN4CCCCS4(=O)=O)c3)ccc21` [Example 44, 6-[5-(1,1-Dioxo-1λ^6-[1,2]thiazinan-2-ylmethyl)-pyridin-3-yl]-1-methyl-3,4-dihydro-1H-quinolin-2-one], the values for the EC50 in assay [1] and in assay [2] were 5 nM and 568 nM, respectively.
As for `CCS(=O)(=O)NCc1cncc(-c2cc3c4c(c2)CCC(=O)N4CCC3)c1` [Example 235, Ethanesulfonic acid [5-(3-oxo-2,3,6,7-tetrahydro-1H,5H-pyrido[3,2,1-ij]quinolin-9-yl)-pyridin-3-ylmethyl]-amide], the values for the 50% effective concentration (EC50) in assay [1] and in assay [2] were 109 nM and 4660 nM, respectively.
The like results for `CN1C(=O)CCc2cc(-c3cncc(CNC(=O)c4cc(Cl)nnc4Cl)c3)ccc21` [Example 95] were, in that order, 17 nM and 1780 nM.
In the same order, the values of `Cc1c(CN[S@+]([O-])C(C)(C)C)cncc1-c1cc2c(cc1F)N(C)C(=O)CC2` [Example 225, (R)-2-Methyl-propane-2-sulfinic acid [5-(7-fluoro-1-methyl-2-oxo-1,2,3,4-tetrahydro-quinolin-6-yl)-4-methyl-pyridin-3-ylmethyl]-amide] are 6 nM and 691 nM.
In the same order, the values of `Cc1noc(C(F)(F)F)c1C(=O)NCc1cncc(-c2ccc3c(c2)CCC(=O)N3C)c1` [Example 136] are 47 nM and 2430 nM.
In the case of `CN1C(=O)CCc2cc(-c3cncc(CN)c3)ccc21` [Example 36, 6-(5-Aminomethyl-pyridin-3-yl)-1-methyl-3,4-dihydro-1H-quinolin-2-one], the results for the half-maximal effective concentration (EC50) in assay [1] and in assay [2] were 71 nM and 2570 nM, respectively.
With `O=C(NCc1cncc(-c2cc3c4c(c2)CCN4C(=O)CC3)c1)c1ncccc1Cl` [Example 236, 3-Chloro-pyridine-2-carboxylic acid [5-(4-oxo-1,2,5,6-tetrahydro-4H-pyrrolo[3,2,1-ij]quinolin-8-yl)-pyridin-3-ylmethyl]-amide], the EC50 in assay [1] came to 3 nM; in assay [2] it was 77 nM.
In the same order, the values of `CCC(=O)N1CCC(Oc2cncc(-c3ccc4c(c3)CCC(=O)N4C)c2)CC1` [Example 88] are 1 nM and 13 nM.
The like results for `Cc1noc(C)c1C(=O)NCc1cncc(-c2cc3c(cc2F)N(C)C(=O)CC3)c1` [Example 127] were, in that order, 12 nM and 400 nM.
Turning to `CN(Cc1cncc(-c2cc(Cl)c3c(c2)CCC(=O)N3)c1)C(=O)c1ncccc1Cl` [Example 216, 3-Chloro-pyridine-2-carboxylic acid [5-(8-chloro-2-oxo-1,2,3,4-tetrahydro-quinolin-6-yl)-pyridin-3-ylmethyl]-methyl-amide], the EC50 came out at 42 nM in assay [1] and 879 nM in assay [2].
In the case of `CCS(=O)(=O)NC(C)c1cncc(-c2cc3c(cc2F)N(C)C(=O)CC3)c1` (single isomer, unassigned) [Example 191, Ethanesulfonic acid {(S or R)-1-[5-(7-fluoro-1-methyl-2-oxo-1,2,3,4-tetrahydro-quinolin-6-yl)-pyridin-3-yl]-ethyl}-amide], the values for the EC50 in assay [1] and in assay [2] were 10 nM and 777 nM, respectively.
In the same order, the values of `CN1C(=O)CCc2cc(-c3cncc(OCCNC(=O)c4ncccc4Cl)c3)c(F)cc21` [Example 244, 3-Chloro-pyridine-2-carboxylic acid {2-[5-(7-fluoro-1-methyl-2-oxo-1,2,3,4-tetrahydro-quinolin-6-yl)-pyridin-3-yloxy]-ethyl}-amide] are 2 nM and 75 nM.
In the same order, the values of `Cc1noc(C)c1C(=O)NCc1cncc(-c2ccc3c(c2)CCC(=O)N3C)c1` [Example 75, 3,5-Dimethyl-isoxazole-4-carboxylic acid [5-(1-methyl-2-oxo-1,2,3,4-tetrahydro-quinolin-6-yl)-pyridin-3-ylmethyl]-amide] are 8 nM and 509 nM.
`CN1C(=O)CCc2cc(-c3cncc(CN4CCC[C@H]4CO)c3)ccc21` [Example 7, 6-[5-((S)-2-Hydroxymethyl-pyrrolidin-1-ylmethyl)-pyridin-3-yl]-1-methyl-3,4-dihydro-1H-quinolin-2-one]: the EC50 in assay [1] is 56 nM; in assay [2] it was 570 nM.
`CC(C)S(=O)(=O)NCc1cncc(-c2ccc3c(c2)CCC(=O)N3C)c1` [Example 38, Propane-2-sulfonic acid [5-(1-methyl-2-oxo-1,2,3,4-tetrahydro-quinolin-6-yl)-pyridin-3-ylmethyl]-amide]: the EC50 in assay [1] worked out at 81 nM; in assay [2], 1500 nM.
Regarding `CN1C(=O)CCc2cc(-c3cncc(N4CC5(CN(C(=O)OC(C)(C)C)C5)C4)n3)ccc21` [Example 28, 6-[6-(1-methyl-2-oxo-1,2,3,4-tetrahydro-quinolin-6-yl)-pyrazin-2-yl]-2,6-diaza-spiro[3.3]heptane-2-carboxylic acid tert-butyl ester], the EC50 in assay [1] came to 121 nM; in assay [2], 780 nM.
On to `CCC(=O)NC(C)c1cncc(-c2ccc3c(c2)CCC(=O)N3C)c1C` (single isomer, unassigned) [Example 266, N-{(R or S)-1-[4-Methyl-5-(1-methyl-2-oxo-1,2,3,4-tetrahydro-quinolin-6-yl)-pyridin-3-yl]-ethyl}-propionamide], for which the results for the EC50 in assay [1] and in assay [2] were 54 nM and 623 nM, respectively.
